molecular target: GGT (gamma glutamyl transpeptidase) of H. pylori ATCC 43504 cells (Helicobacter pylori, UniProt O25743); assay: Cell Based GGT Inhibitor (CBGI) Assay; details: whole H. pylori ATCC 43504 cells, ~30 min room temperature, AMC release fluorescence; table titled 'Binding Data of GGT Modulating Compounds'
Method: Cell Based GGT Inhibitor Assay
The protocol of the Cell Based GGT Inhibitor Assay (CBGI assay) is adapted from the Methods in Enzymology protocol 252: 66 (1995).
H. pylori Sample Preparation
H. pylori ATCC 43504 were grown on blood agar plates. For accurate results, the H. pylori cells were in a logarithmic, spiral phase. This was achieved by plating cells from a culture that was >75% spiral in a phosphate buffered saline (PBS) solution on blood agar plates and incubating them overnight in microaerophilic conditions at 37° C. The next day, the cells were harvested by adding 1 ml of PBS to the plate and scraping off cells gently with a loop. The cells were then placed in a sterile 50 ml conical tube and the plate was washed ˜5 times with 1 ml of PBS. The washes were then pooled in the same 50 ml tube. An OD600 was subsequently taken using PBS as the blank. The cells were then resuspended to reach a final OD600 of 0.05. A single blood agar plate typically yields approximately 50-75 mls of cells at A600 OD=0.05. 3 mls of cells at OD=0.05 are required for each 96-well plate; 30 μl added to each well yields a final OD of 0.015. 4-5 blood agar plates would yield more than enough H. pylori cells for 50 96-well microtitre plates.
On each test plate, two known inhibitors were added to separate control wells (4 μl 0.25 mM azaserine and 4 μl 1.25 mM γ-glu-hydroxamate). Control wells containing only cells were also included on each test plate. In each well, 70 μl of buffer was added using an automated dispenser. Then, 30 μl H. pylori cells were added at OD A600=0.05. After the cells were added to each well, the plate was kept at room temperature for ˜30 minutes. The reaction was terminated by dispensing 75 μl 100 mM glycine to each well.
GGT inhibition was determined by analyzing the release of amido-4-methylcoumarin (AMC) at A460 nm after excitation at A360 in Cytoflour//Walloc fluorescent plate reader. The data was compared to the average of the two control wells from each plate and the γ-glu-hydroxamate control, which should always be ˜50%. Any compound that inhibited ≦50% activity was retested.

Sequence of GGT (gamma glutamyl transpeptidase) of H. pylori ATCC 43504 cells (O25743 entry or part of it): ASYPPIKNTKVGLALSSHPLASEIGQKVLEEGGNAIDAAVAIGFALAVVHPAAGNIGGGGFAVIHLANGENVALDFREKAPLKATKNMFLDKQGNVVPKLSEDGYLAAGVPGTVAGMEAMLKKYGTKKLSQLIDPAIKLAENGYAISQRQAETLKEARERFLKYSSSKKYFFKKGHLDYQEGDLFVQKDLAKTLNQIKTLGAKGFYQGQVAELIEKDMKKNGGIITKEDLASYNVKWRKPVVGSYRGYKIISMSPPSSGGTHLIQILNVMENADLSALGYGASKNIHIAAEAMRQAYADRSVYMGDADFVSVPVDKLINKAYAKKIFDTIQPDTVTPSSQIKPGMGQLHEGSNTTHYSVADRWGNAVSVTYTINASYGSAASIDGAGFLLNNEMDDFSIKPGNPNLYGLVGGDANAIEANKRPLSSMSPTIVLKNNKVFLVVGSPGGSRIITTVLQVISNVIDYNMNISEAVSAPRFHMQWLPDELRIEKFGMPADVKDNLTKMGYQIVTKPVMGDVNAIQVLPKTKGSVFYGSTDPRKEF

**Q.** With `CCN1CCCC(NC(=O)c2ccc(Nc3ccnc4cc5ccccc5cc34)cc2)C1` (stereo not shown) [A] as the compound, how does the IC50 read?
**A.** Its IC50 is 1.13 µM.

**Q.** How did the IC50 turn out when `COc1cc(/C=C2/SC(=S)NC2=O)ccc1O` [B] was run?
**A.** Its IC50 is 22.4 µM.

**Q.** For `Cc1nc(-c2nc(C(=O)/C=C/N(C)C)cs2)cs1` [C], which IC50 is on record?
**A.** Its IC50 is 17.9 to 35.8 µM.

**Q.** Which IC50 does the source give for `CC(C)OC(=O)CSc1nc2cc(C(=O)NC(Cc3cnc[nH]3)C(N)=O)ccc2n1CCc1c[nH]c2ccccc12` (stereo not shown) [D] here?
**A.** The IC50 was 4.53 µM.

**Q.** With `CCN(CC)CCn1c(SCC(=O)c2ccc(-c3ccccc3)cc2)nc2cc(C(=O)NC(Cc3cn(Cc4ccccc4)cn3)C(N)=O)ccc21` (stereo not shown) [E] as the compound, how does the IC50 read?
**A.** The IC50 was 11.2 µM.

**Q.** `Cc1ccc(CSc2nnc(/N=C/N(C)C)s2)cc1` [F] was tested. Which IC50 did it give?
**A.** The IC50 was 2.02 µM.

**Q.** Which IC50 does the source give for `COc1cccc(-c2cc3[nH]c(C)cc(=O)n3n2)c1` [G] here?
**A.** The IC50 was 2.15 µM.
